Measured values: patent publication US6479046B2, “Attractants and repellants for colorado potato beetle” (priority 2000, dated 2002)

Key:
CPB = conditions: Schütz et al. (1997); cited from earlier work
[1] = system: Colorado potato beetle (CPB) adults; assay: open Y-track olfactometer dual choice bioassay, adult beetles; format: in vivo, Leptinotarsa decemlineata
Description: Insects: Adult Colorado potato beetles (CPB) were obtained from a laboratory colony which was annually infused with feral insects. CPB were maintained on potato, S. tuberosum cultivar Kennebeck, for both larval and adult stages. Upon emergence, adults were sexed; individual insects were kept in plastic containers with fresh potato foliage and water until use six to 12 days post emergence. Prior to testing, CPB were starved for two to three hours. Experimental insects were used only once.
Odorous blends tested are described in Table 3.
Plant stimuli consisted of 4.8 g of leaves from mature plants that were mechanically-damaged using scissors to make incisions ca. 1 cm in length at ca. 1 cm intervals around the circumference of leaves. Foliage used in the study were, potato, S. tuberosum cultivar Kennebeck (Solanaceae); tomato, Lycopersicon esculentum Mill cultivar Pik Red (Solanaceae); and soybean, Glycines maxcultivar Williams (Leguminaceae).
Experimental protocol: Chemical blends and plant foliage were tested for behavioral activity in an open Y-track olfactometer modified after Visser et al. (Visser, J. H., et al., Proceedings of the Section Experimental and Applied Entomology of the Netherlands Entomological Society Amsterdam, 9: 41-46 (1998); and described in detail by Dickens (Dickens, J. C., Agricultural and Forest Entomology, 1: 47-54 (1999)). In brief, odorous stimuli emanating from synthetic blends on filter paper discs (2.5 cm dia., Whatman™ #1 filter paper) or mechanically-damaged plant foliage in Ehrlenmeyer flasks were delivered to either side of the device. For each blend, a total amount of 25 μl of neat chemicals were diluted in 1 ml of mineral oil (25 μg total chemicals/μl mineral oil). […]
Statistical analysesLaboratory bioassays were assessed for significant differences by the hypothesis on binomial proportions based on the standard normal approximation (Brase, C. H., et al., Understanding Statistics, D. C. Heath and Co., Lexington, Mass., XIV +489 pp. (1983)).

Compound | attraction of CPB to leaves sprayed with paraffin solutions (in words) (CPB) | behavioral response of CPB to treatment versus control (in words) [1]
C=CC(C)(O)CCC=C(C)C (stereo not shown) [linalool] | attractive | –
C=C1CC/C=C(\C)CC[C@@H]2[C@@H]1CC2(C)C [β-caryophyllene] | attractive | –
COC(=O)c1ccccc1O [XVI, methyl salicylate] | – | unattractive
OCCc1ccccc1 [2-benzene-ethanol] | attractive | –
C=CC(=C)CCC=C(C)C [β-myrcene] | reduced attraction | –
C=CC(C)(O)CCC=C(C)C (single isomer, unassigned; (+)) [XV, (+)-linalool] | – | unattractive
CC/C=C\CCOC(C)=O [XIV, (Z)-3-hexenyl acetate] | – | unattractive
benzene methanol | attractive | –
CCCCCCCCC=O [nonanal] | reduced attraction | –
CCCCC/C=C\CCO [(Z)-3-nonen-1-ol] | reduced attraction | –
